Reference: patent US9808470B2, “Estrogenic components for use in the treatment of neurological disorders” (UNIVERSITE DE LIEGE, priority 2012, dated 2017)

Key:
Format in all cases: in vivo
[1] = test system: intact cells in hippocampus and cortex; experiment: Ex.3 neuroprotective HIE rat model: intact cell counting
Experimental: Paraformaldehyde-fixed paraffin embedded samples of the removed brains were coronally sectioned at the same level of the hippocampus region in accordance to the Paxinos rat brain atlas (Paxinos and Watson 2007. In: The rat brain in stereotaxic coordinates, 6th edition). Thickness of sections was 5 μm. Hematoxylin-eosin staining was performed. Briefly, sections were deparaffinized in xylene and rehydrated in graded ethanol concentrations before staining. Slides were stained with hematoxylin, rinsed for a few seconds in water, then placed in 1% eosin and washed, dehydrated, and coverslipped.
Intact cell counting was performed on hematoxylin-eosin-stained sections of the rat pups brains at magnification 400× in 3 fields of the respective brain area. Countings were performed in cortex and hippocampus (regions: dentate gyrus (DG), subgranular zone (SGZ), cornu ammonis (CA1, CA2/CA3)). The sections were analyzed with the aid of a microscope (Olympus BX51, Olympus, Tokyo, Japan), an image scanner (DotSlide Digital Virtual Microscopy, Olympus, Germany) and ImageJ software (NIH, US).
Intact cells are uninjured. Injured cells are characterized by a pale eosinophilic staining along with non-uniform nuclear densities-shrunken, condensed, or pale and enlarged.
Newborn rat pups were assigned to one of the following 6 groups from postnatal day 4: Sham group (n=24), Vehicle group (n=14), E4 1 mg/kg/per day group (n=11), E4 5 mg/kg/per day group (n=14), E4 10 mg/kg/per day group (n=14), or E4 50 mg/kg/per day group (n=19). From postnatal day 4, rat pups were intraperitoneally injected either vehicle (Vehicle group) or E4 (1, 5, 10, or 50 mg/kg/per day in accordance to the E4 group assignment) or neither vehicle nor E4 (Sham group). At day 7, 30 minutes after last injection, animals were anesthetized with isoflurane (induction, 3.0%; maintenance, 1.5%), and the rat pups from Vehicle and E4 groups passed through surgery encompassing left common carotid artery double ligation and cut. After the procedure, the pups were returned to their dams and were allowed to recover for 1 hour. The pups were then placed in the humidified hypoxic in vivo cabinet (CoyLab, Grass Lake, Mich., USA). Hypoxia was produced by the inhalation of 11%-8% of oxygen balanced by nitrogen at decreased concentration of oxygen for 20 minutes, followed by inhalation of 8% oxygen and 92% nitrogen at constant concentration for 35 minutes. All the manipulations were performed at 37° C. The Sham group went through similar procedures without left common carotid artery ligation followed by hypoxia nor injection. Rat pups recovered with their dams and reared normally until being sacrificed at postnatal day 14.

[2] = test system: doublecortin (DCX); experiment: Ex.8 therapeutic HIE rat model: doublecortin staining
Experimental: (§1) To study the therapeutic effect of estetrol, newborn rat pups were assigned to one of the following 14 groups at postnatal day 7 (FIG. 23(B)): Sham group (n=12), Vehicle (n=15), 5 mg/kg/day E4 (n=11), 10 mg/kg/day E4 (n=11), 5 mg/kg/day E4+1.6 mg/kg/day PROG (n=11), 10 mg/kg/day E4+1.6 mg/kg/day PROG (n=11), 5 mg/kg/day E4+16 mg/kg/day PROG (n=11), 10 mg/kg/day E4+16 mg/kg/day PROG (n=13), 5 mg/kg/day E4+136 ng//kg/day E2 (n=11), 10 mg/kg/day E4+136 ng/kg/day E2 (n=11), 5 mg/kg/day E4+1.6 mg/kg/day PROG+136 ng/kg/day E2 (n=12), 10 mg/kg/day E4+1.6 mg/kg/day PROG+136 ng/kg/day E2 (n=11), 5 mg/kg/day E4+16 mg/kg/day PROG+136 ng/kg/day E2 (n=11), 10 mg/kg/day E4+16 mg/kg/day PROG+136 ng/kg/day (n=12) groups. […] After surgery, the pups were returned to their dams and allowed to recover for 1 hour. The pups were then placed in a humidified hypoxic in vivo cabinet (CoyLab). […]
The sections were heated in 10 mmol/L citrate buffer (pH 6.0) at 100° C. for 10 minutes. […] Samples were analyzed with the aid of a microscope (Olympus Vanox AHBT3, Olympus), and the ImageJ software 15 (NIH). The percentage of positively stained cells was quantified as a sum of positively stained either DCX or VEGF cells divided by the total number of DAPI positive cells expressed in percentage.

[3] = test system: glial fibrillary acidic protein (GFAP); experiment: Ex.8 therapeutic HIE rat model: blood serum GFAP ELISA; conditions: 10 mg/kg/day E4, PND14
Experimental: as §1, with “(CoyLab). Hypoxia was produced by the inhalation of 11%-8% of oxygen balanced by nitrogen at decreased concentration of oxygen for 20 minutes, followed by inhalation of 8% oxygen and 92% nitrogen at constant concentration for 35 minutes. All the manipulations were performed at 37° C. Upon retrieval from the hypoxia chamber the rat pups were injected ip once either by vehicle (vehicle group) or by in accordance to the group assignment.” for “(CoyLab).”

C[C@]12CC[C@@H]3c4ccc(O)cc4CC[C@H]3[C@@H]1[C@@H](O)[C@@H](O)[C@@H]2O [E4, 1,3,5(10)-estratrien-3,15α,16α,17β-tetrol]
number of intact cells per visual field ([1]; 1 mg/kg E4 ip PND4-7 before HI, CA1): 43.2±2.435
number of intact cells per visual field ([1]; 1 mg/kg E4 ip PND4-7 before HI, CA2/CA3): 32.8±2.808
number of intact cells per visual field ([1]; 1 mg/kg E4 ip PND4-7 before HI, SGZ): 35.6±2.75
number of intact cells per visual field ([1]; 5 mg/kg E4 ip PND4-7 before HI, DG): 121.0±8.098
number of intact cells per visual field ([1]; 5 mg/kg E4 ip PND4-7 before HI, SGZ): 42.846±3.884
number of intact cells per visual field ([1]; 10 mg/kg E4 ip PND4-7 before HI, CA1): 57.4±4.566
number of intact cells per visual field ([1]; 10 mg/kg E4 ip PND4-7 before HI, SGZ): 47.6±4.672
number of intact cells per visual field ([1]; 50 mg/kg E4 ip PND4-7 before HI, CA2/CA3): 53.0±4.7
number of intact cells per visual field ([1]; 50 mg/kg E4 ip PND4-7 before HI, SGZ): 30.714±3.615
number of intact cells per visual field ([1]; 50 mg/kg E4 ip PND4-7 before HI, cortex): 76.286±3.962
percentage of DCX positively stained cells ([2]; 5 mg/kg/day E4, CA2/CA3): 15.09±12.17%
DCX positively stained cell percentage ([2]; 5 mg/kg/day E4, hippocampus): 59.73±3.44%
GFAP protein concentration in blood serum [3]: 10806.52 ± 1015.19 pg/mL
